Experimental data from ChEMBL document CHEMBL2321747, “A nonionic inhibitor with high specificity for the UDP-Gal donor binding site of human blood group B galactosyltransferase: design, synthesis, and characterization” (J Med Chem, 2013).
Activity calls are given as the source filed them. No cut-off for these calls is given here.

Key:
[1] = biological target: T1, Histo-blood group ABO system transferase (Homo sapiens, UniProt P16442); assay: Inhibition of human blood group B Galactosyltransferase using UDP-Gal as substrate by STD NMR analysis in presence of magnesium ions
T1 sequence (P16442 whole entry): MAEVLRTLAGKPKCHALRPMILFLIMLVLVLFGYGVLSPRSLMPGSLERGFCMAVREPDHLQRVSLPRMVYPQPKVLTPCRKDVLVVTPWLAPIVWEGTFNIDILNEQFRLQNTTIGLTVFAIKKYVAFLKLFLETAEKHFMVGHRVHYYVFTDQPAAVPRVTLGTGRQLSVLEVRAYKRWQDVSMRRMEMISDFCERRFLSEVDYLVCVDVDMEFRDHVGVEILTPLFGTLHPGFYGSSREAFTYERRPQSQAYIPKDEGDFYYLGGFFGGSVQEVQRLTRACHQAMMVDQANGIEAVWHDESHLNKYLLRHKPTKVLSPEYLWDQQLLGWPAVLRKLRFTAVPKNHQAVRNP

[2] = biological target: T1, Histo-blood group ABO system transferase; assay: Binding affinity to human blood group B Galactosyltransferase by STD NMR analysis in presence of magnesium ions
[3] = organism: Homo sapiens; assay: (§1) Competitive inhibition of human blood group A N-acetylgalactosaminyltransferase using UDP-GalNac as substrate in presence of magnesium ions
[4] = biological target: T1, Histo-blood group ABO system transferase; assay: Inhibition of human blood group B Galactosyltransferase using radiolabeled UDP-Gal as substrate in presence of manganese ions
[5] = biological target: T1, Histo-blood group ABO system transferase; assay: Competitive inhibition of human blood group B Galactosyltransferase using UDP-Gal as substrate by Michaelis-Menten equation analysis in presence of magnesium ions
[6] = biological target: T1, Histo-blood group ABO system transferase; assay: Binding affinity to human blood group B Galactosyltransferase after 300 secs by SPR analysis
[7] = biological target: T2, Beta-1,4-galactosyltransferase 1 (Bos taurus) (UniProt P08037); assay: Binding affinity to bovine beta-1,4-galactosyltransferase 1 using UDP-Gal as substrate at 1.5 mM after 15 hrs by NMR spectroscopic analysis in presence of magnesium ions
T2 sequence (whole entry): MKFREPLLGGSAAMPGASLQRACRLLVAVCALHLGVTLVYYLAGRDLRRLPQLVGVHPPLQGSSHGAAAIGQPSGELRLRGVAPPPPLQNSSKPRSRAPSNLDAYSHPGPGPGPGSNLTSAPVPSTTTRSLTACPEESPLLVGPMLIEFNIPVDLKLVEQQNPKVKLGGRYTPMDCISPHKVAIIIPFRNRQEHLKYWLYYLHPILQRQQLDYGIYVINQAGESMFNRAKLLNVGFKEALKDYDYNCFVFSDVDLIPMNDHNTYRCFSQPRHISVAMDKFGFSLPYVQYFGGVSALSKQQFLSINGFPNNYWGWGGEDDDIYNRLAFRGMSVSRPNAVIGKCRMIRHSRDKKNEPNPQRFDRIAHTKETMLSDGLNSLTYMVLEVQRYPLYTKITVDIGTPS

[8] = as §1

| Compound | IC50 [1] [µM] | Ki [1] [µM] | Kd [2] [µM] | inhibition [3] | IC50 [4] [µM] | Ki [4] [µM] | Ki [5] [µM] | Kd [6] [µM] | inhibition [7] | Ki [8] [µM] |
| --- | --- | --- | --- | --- | --- | --- | --- | --- | --- | --- |
| O=c1[nH]c(=O)c2[nH]c(=O)n(C[C@@H](O)[C@H](O)[C@H](O)CO[C@H]3O[C@H](CO)[C@H](O)[C@H](O)[C@H]3O)c2[nH]1 | 389 | 117 | 182 | inactive | 1600 | 1500 | 565 | 254 | Active |  |
| O=c1[nH]c(=O)c2[nH]c(=O)n(C[C@@H](O)[C@H](O)[C@H](O)CO)c2[nH]1 |  | 571 |  |  |  | 2200 |  | 2300 |  | 1100 |
| O=c1[nH]c(=O)c2[nH]c(=O)n(C[C@H](O)[C@H](O)[C@H](O)CO)c2[nH]1 |  | 361 |  |  |  | 1500 |  |  |  | 712 |
